The text below walks through data of patent US20210361639A1, “SOLID COMPOSITIONS OF ACTIVES, PROCESSES FOR PREPARING SAME AND USES OF SUCH SOLID COMPOSITIONS” (The University of Liverpool, priority 2018, published 2021).

A short description of data set [1]: Single oral dose pharmacokinetics of atazanavir. Set-up: species or system Wistar rats. Particulars: male, Wistar, rat, in vivo, 10 mg/kg. The method, then: All animal work was conducted in accordance with the Animals (Scientific Procedures) Act 1986 (ASPA) implemented by the UK Home Office. The rodents were housed with environmental enrichment and a 12 h light/dark cycle at 21° C.±2° C. Free access to food and water was provided at all times during acclimatisation. Following 7-days acclimatisation, adult male Wistar rats (280-330 g) were fasted overnight and dosed with 10 mg Kg^−1 atazanavir at 10 μCi/mg, either as a conventional [^3H]-atazanavir preparation (<5% DMSO) or as a [^3H]-^ATVSDNF68/T20 nanodispersion using a 7-cm curved gavage needle. Subsequently, blood samples were collected (0.2 ml) at 1, 2, 2.5, 3, 6 and 12 h post-dosing from the tail vein. At 24 h, the rats were sacrificed using cardiac puncture under terminal anaesthesia (isoflurane/oxygen), followed by immediate exsanguination of blood from the heart. Subsequently, an overdose of sodium pentobarbitone was administered using the same in situ puncture needle. Blood samples were collected in heparinised Eppendorf tubes and centrifuged at 3,000 rpm for 5 min. The plasma layer was collected and stored at −20° C. prior to analysis.

The nature of data set [2]: Multiple oral dose (every 6 hours) pharmacokinetics of atazanavir. The settings on record: multiple oral dose 10 mg/kg atazanavir every 6 hours, steady state, rat plasma. Format: in vivo, Wistar rats. As for the experimental part:
All animal work was conducted in accordance with the Animals (Scientific Procedures) Act 1986 (ASPA) implemented by the UK Home Office. The rodents were housed with environmental enrichment and a 12 h light/dark cycle at 21° C.±2° C. Free access to food and water was provided at all times. Following 7-days acclimatisation, adult male Wistar rats (280-330 g) were dosed with 10 mg Kg^−1 atazanavir at 5 μCi/mg, either as a conventional [^3H]-atazanavir preparation (<5% DMSO) or as a [^3H]^ATVSDNF68/T20 nanodispersion using a 7-cm curved gavage needle. Subsequent doses were administered at 6 hour intervals. Subsequently, trough blood samples were collected (0.15 ml) every 12 h post-dosing from the lateral tail vein. Steady state PK blood samples were taken at 60, 61, 62, 62.5, 63, 64 and 66 h post first dose. At 66 h, the rats were sacrificed using cardiac puncture under terminal anaesthesia (isoflurane/oxygen), followed by immediate exsanguination of blood from the heart. Subsequently, an overdose of sodium pentobarbitone was administered using the same in situ puncture needle. Blood samples were collected in heparinised Eppendorf tubes and centrifuged at 3,000 rpm for 5 min. The plasma layer was collected and stored at −20° C. prior to analysis.

In general, AUC(0-t) refers to the area under the concentration-time curve up to a stated or last time point. By Cmax is commonly meant the maximum level reached in the sampled fluid or tissue. One may read the Tmax as the time from dosing to the highest level.

For the molecule `COC(=O)N[C@H](C(=O)N[C@@H](Cc1ccccc1)[C@@H](O)CN(Cc1ccc(-c2ccccn2)cc1)NC(=O)[C@@H](NC(=O)OC)C(C)(C)C)C(C)(C)C` [Aqueous atazanavir, atazanavir], in data set [1], the AUC(0-t) came to 60400 ng·h/mL, the Cmax was 4870 ng/mL, the Cmin was 1986 ng/mL and the Tmax worked out at 2 h. Further, in data set [2] (male, Wistar), the area under the curve AUC(0-t) is 15500 ng·h/mL, the concentration peaked (Cmax) at 3090 ng/mL and the Tmax came out at 1 h. Besides, the Cmin in data set [2] worked out at 1799 ng/mL.
